Measured values reported in US20090264384A1, “INDOLE, BENZIMIDAZOLE, AND BENZOLACTAM BORONIC ACID COMPOUNDS, ANALOGS THEREOF AND METHODS OF USE THEREOF” (Nuada, Inc., priority 2004, published 2009).
pIC50: −log10 of the molar value.

Legend:
Cytochrome P450 (CYP) [1] = molecular target: Cytochrome P450 (CYP) (Homo sapiens, UniProt P05177)
Cytochrome P450 (CYP) [2] = molecular target: Cytochrome P450 (CYP) (Homo sapiens, UniProt P10635); assay: ADME-Tox: In vitro Metabolism (Cytochrome P450, fluorogenic substrates BFC, CEC, MFC); settings: Hill coefficient, CYP2D6 Inhibition (7-MFC substrate)
Phosphodiesterase 5(h) = molecular target: T1, Phosphodiesterase 5(h) (Homo sapiens, UniProt O76074); assay: Phosphodiesterase 5(h) enzyme assay; type: biochemical; settings: Hill coefficient, Phosphodiesterase 5(h)
T1 construct: human platelets; from tissue; host or cells: human platelets

Acetylcholinesterase(h) = molecular target: T2, Acetylcholinesterase(h) (Homo sapiens, UniProt P22303); assay: Acetylcholinesterase(h) enzyme assay; type: biochemical; settings: Hill coefficient, Acetylcholinesterase(h)
T2 construct: host or cells: HEK-293 cells

[3] = test system: chronic colitis provoked by trinitrobenzene sulphonic acid (TNBS); assay: Rat model of chronic colitis provoked by TNBS over 14 days, treatment from Day 1; type: in vivo; settings: 3 mg/kg i.v. on Day 1 and Day 7
From the text: In the chronic model of colitis, assessment of the colonic inflammation is made 14 days or longer, after the intracolonic challenge with TNBS (Boughton-Smith et al, 1988a, 1988b; Wallace et al, 1989; Rachmilewitz et al, 1989; Wallace and Keenan, 1990; Ameho et al, 1987; Sans et al, 1999; Sun et al, 2001; Maric et al, 2003; Moreels et al, 2004; Gonzalez et al, 2004). This model allows treatment with experimental agents to commence following the establishment of the colonic injury, typically 24 hours after the TNBS challenge (Galvez et al, 2000, Villegas, 2003, Gonzalez et al, 2004). The model should therefore identify the ability of the experimental compounds to accelerate the diminution of the inflammatory response and to promote healing of the colonic lesions. This model thus has relevance additional to the acute model, as the clinical correlate is the therapeutic intervention in patients with existing IBD not in remission or with flare-up, to reduce the crisis. This contrasts with the acute TNBS model where the compounds are administered one or two days prior to challenge, the clinical correlate being the use of prophylactic therapy to prevent flare-up and maintain remission in IBD patients.
In this current study, the low intracolonic challenge concentration of TNBS used in the acute studies was also used for the chronic study over a 14 day period. This concentration and timing was based on the findings from pilot studies where a range of concentrations of TNBS and treatment conditions were evaluated over a 14 day period. […].
The methods and protocol used were substantially similar to those in Example 39-40, with some differences described below.
TNBS Challenge. Male Wistar rats (average body weight, 210 g) were randomised into groups before commencement of the study. In all groups, including the non-challenged and non-treated absolute control group, food was withdrawn for 12 h before TNBS administration (i.e. overnight on Day −1), but the rats were allowed free access to drinking water.
On the morning of the day of challenge (Day 0, between 9.00 and 1 1.00 a.m.), the rats were transiently anaesthetised with ether and the TNBS solution (10 mg in 0.25 ml of 50% ethanol) was instilled approximately 6-8 cm into the colon using a soft plastic catheter inserted in the rat rectum. The rats were allowed to recover with free access to food and drinking water. At the end of the experiment, on the morning of Day 14, between 9.00 and 11.00), the colon was dissected, and the distal 8 cm photographed and immediately processed or stored appropriately for subsequent analyses.
The following primary parameters were measured in the study: macroscopic scoring of distal 8 cm of colon; myeloperoxidase levels in segments of distal 8 cm of colon; TNF-α levels in segments of distal 8 cm of colon.
In addition, the weight of the standard colonic segment was assessed as an indirect and non-specific marker of oedema. The body weight of the animals was also determined each evening of the study, starting on Day-1, and also on the morning of Day 14. The data is shown graphically as the % change from the weight on Day-1, prior to challenge.
Treatments. The TNBS challenged groups for study were: (a) Vehicle control 0.5% carboxy methyl cellulose (CMC) p.o., twice daily from Day; (b) CCI-7506 25 mg/kg, p.o., twice daily from Day 1 (50 mg/kg/day total); (c) CCI-7506 50 mg/kg, p.o., twice daily from Day 1 (100 mg/kg/day total); (d) CCI-7507 12.5 mg/kg, p.o., twice daily from Day 1 (25 mg/kg/day total); (e) CCI-7507 25 mg/kg, p.o., twice daily from Day 1(50 mg/kg/day total); […]; (g) Infliximab 3 mg/kg, single slow i.v. injection, on Day 1 and Day7.
The experimental compounds that were administered orally were given twice a day from Day 1, i.e. 24 h following TNBS administration, for the remainder of the 14 day experimental period. Infliximab was administered by slow i.v. injection of Day 1 and on Day 7. […]

TNBS colitis = settings: single intravenous dose pre-treatment; 8 days after TNBS challenge; cited from earlier work
Phosphodiesterase 1 = Phosphodiesterase 1 enzyme assay; type: biochemical, bovine; settings: reference compound, Phosphodiesterase 1
α1 (non-selective) = α1 (non-selective) binding assay; parameters: species or system rat
[4] = molecular target: Catechol-O-methyl transferase; assay: Catechol-O-methyl transferase enzyme assay; type: biochemical, porcine; settings: reference compound, Catechol-O-methyl transferase
Phosphodiesterase 3(h) = Phosphodiesterase 3(h) (Homo sapiens, UniProt Q14432); assay: Phosphodiesterase 3(h) enzyme assay; type: biochemical; settings: Hill coefficient, Phosphodiesterase 3(h)
Cytochrome P450 (CYP) [5] = molecular target: Cytochrome P450 (CYP) (Homo sapiens, UniProt P11712); assay: ADME-Tox: In vitro Metabolism (Cytochrome P450, fluorogenic substrates BFC, CEC, MFC); settings: Hill coefficient, CYP2C9 Inhibition (7-MFC substrate)
Chain of Cytochrome P450 (CYP) (Homo sapiens, UniProt P11712) (P11712 whole entry): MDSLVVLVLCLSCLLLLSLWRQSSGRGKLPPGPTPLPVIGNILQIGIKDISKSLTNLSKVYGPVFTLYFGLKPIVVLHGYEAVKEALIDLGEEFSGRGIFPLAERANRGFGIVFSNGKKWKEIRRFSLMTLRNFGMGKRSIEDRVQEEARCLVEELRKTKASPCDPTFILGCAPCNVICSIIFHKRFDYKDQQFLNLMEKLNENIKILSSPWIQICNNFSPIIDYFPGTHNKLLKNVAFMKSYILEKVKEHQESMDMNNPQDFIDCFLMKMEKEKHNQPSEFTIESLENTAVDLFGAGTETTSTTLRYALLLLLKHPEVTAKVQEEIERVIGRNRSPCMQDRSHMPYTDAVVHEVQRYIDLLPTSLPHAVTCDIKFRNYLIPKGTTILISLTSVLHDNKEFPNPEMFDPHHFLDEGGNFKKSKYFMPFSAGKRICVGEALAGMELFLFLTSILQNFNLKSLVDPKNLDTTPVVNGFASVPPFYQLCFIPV

Chain of Cytochrome P450 (CYP) (Homo sapiens, UniProt P05177) (P05177 whole entry): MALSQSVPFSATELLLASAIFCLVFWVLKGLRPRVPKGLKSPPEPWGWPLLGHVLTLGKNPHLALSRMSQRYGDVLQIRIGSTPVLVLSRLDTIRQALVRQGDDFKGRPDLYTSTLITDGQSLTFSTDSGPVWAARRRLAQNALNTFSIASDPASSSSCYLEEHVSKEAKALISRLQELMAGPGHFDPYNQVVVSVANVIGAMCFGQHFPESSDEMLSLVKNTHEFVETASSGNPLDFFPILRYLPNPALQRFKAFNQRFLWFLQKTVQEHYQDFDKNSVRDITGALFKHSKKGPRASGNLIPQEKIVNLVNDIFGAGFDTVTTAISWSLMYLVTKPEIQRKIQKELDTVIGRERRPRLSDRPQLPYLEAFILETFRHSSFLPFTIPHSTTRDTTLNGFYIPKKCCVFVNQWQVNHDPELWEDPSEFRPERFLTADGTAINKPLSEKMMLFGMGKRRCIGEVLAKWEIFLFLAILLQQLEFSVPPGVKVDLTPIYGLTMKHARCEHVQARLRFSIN
Chain of Phosphodiesterase 3(h) (Q14432 674-1093 limits assumed): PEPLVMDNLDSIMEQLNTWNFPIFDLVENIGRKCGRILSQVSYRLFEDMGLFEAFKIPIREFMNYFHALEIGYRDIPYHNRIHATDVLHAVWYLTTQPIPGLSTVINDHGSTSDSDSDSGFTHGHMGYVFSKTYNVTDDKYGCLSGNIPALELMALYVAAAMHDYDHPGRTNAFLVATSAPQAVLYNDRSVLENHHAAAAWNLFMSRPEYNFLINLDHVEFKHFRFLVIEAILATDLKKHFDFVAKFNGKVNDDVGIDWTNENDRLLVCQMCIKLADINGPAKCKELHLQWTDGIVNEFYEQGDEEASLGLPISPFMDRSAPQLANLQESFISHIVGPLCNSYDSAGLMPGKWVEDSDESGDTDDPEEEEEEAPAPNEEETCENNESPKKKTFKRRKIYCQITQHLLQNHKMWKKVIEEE
Chain of Catechol-O-methyl transferase (Q99028 whole entry): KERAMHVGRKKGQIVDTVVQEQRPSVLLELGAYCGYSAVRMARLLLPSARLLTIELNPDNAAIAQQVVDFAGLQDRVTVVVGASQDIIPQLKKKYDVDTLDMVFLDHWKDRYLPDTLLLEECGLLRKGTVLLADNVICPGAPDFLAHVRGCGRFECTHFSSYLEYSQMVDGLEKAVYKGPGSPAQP
Chain of Cytochrome P450 (CYP) (Homo sapiens, UniProt P10635) (P10635 whole entry): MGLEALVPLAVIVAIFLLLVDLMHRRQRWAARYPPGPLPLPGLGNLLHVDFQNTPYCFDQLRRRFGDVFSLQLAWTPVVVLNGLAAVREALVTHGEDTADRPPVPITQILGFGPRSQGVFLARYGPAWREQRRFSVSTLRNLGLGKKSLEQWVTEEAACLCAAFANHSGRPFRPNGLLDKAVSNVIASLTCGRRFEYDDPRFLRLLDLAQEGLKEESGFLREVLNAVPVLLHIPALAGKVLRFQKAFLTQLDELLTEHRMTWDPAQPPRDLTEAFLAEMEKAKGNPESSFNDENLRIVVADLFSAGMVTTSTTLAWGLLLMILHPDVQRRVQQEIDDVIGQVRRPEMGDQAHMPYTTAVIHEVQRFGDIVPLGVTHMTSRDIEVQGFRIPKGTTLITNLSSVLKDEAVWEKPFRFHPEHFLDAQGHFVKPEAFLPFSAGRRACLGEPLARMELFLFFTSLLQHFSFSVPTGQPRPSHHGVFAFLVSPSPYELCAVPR
T2 sequence (P22303 32-614): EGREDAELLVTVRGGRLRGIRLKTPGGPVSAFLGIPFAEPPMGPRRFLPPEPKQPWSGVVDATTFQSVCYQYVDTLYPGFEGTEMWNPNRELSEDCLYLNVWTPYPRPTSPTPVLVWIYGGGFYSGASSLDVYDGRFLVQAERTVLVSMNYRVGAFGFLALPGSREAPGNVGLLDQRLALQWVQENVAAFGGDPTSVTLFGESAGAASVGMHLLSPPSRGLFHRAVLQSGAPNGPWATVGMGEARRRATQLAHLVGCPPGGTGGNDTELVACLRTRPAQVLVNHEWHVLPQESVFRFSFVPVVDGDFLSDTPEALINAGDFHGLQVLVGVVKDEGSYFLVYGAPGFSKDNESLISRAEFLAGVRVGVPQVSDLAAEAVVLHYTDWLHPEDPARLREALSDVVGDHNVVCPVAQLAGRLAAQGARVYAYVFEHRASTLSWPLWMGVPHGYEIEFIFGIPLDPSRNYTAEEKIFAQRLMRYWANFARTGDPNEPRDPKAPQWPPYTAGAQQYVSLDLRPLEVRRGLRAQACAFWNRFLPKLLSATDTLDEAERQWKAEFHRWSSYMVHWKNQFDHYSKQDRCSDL

Cc1nc2c([nH]1)c(=O)n(C)c(=O)n2Cc1ccco1 [furafylline]
nH (Cytochrome P450 (CYP) [1]): 0.6

C=C[C@H]1C[N@@]2CC[C@H]1C[C@@H]2[C@@H](O)c1ccnc2ccc(OC)cc12 [quinidine]
nH (Cytochrome P450 (CYP) [2]): 0.9

OCCN(CCO)c1nc(N2CCCCC2)c2nc(N(CCO)CCO)nc(N3CCCCC3)c2n1 [dipyridamole]
nH (Phosphodiesterase 5(h)): 1.5

CN(C)C(=O)Oc1cccc([N+](C)(C)C)c1 [neostigmine]
nH (Acetylcholinesterase(h)): 1.5

infliximab
macroscopic Damage Score ([3]; Day 14): reduced the damage score
reduction in colon weight ([3]; Day 14, vs CMC group): significant (P<0.05) reduction in colon weight
reduction in colonic MPO activity ([3]; Day 14, vs CMC group): significantly attenuated the increase in MPO
reduction in colonic TNF-α levels ([3]; Day 14, vs CMC group): significantly attenuated the increase in TNF-α levels
reduction in colonic lesion area (% of the total area measured) ([3]; Day 14, vs CMC group): significantly attenuated the area of injury
attenuation of TNBS-induced fall in body weight (% change of body weight at Day −1) ([3]; over 14 days, vs CMC group): significant on Day 2 and 3
macroscopic injury, colonic MPO and TNF-α levels (TNBS colitis): found to reduce the macroscopic injury, colonic MPO and TNF-α levels

COc1nc2c([nH]1)c(=O)n(C)c(=O)n2CC(C)C [Example 8-methoxy-IBMX]
pIC50 (Phosphodiesterase 1): 5.62

COc1cc2nc(N3CCN(C(=O)c4ccco4)CC3)nc(N)c2cc1OC [prazosin, reference compound]
nH (α1 (non-selective)): 1.6

Ro 41-0960
pIC50 [4]: 7.29

Cc1[nH]c(=O)c(C#N)cc1-c1ccncc1 [milrinone]
nH (Phosphodiesterase 3(h)): 0.8

Nc1ccc(S(=O)(=O)Nc2ccnn2-c2ccccc2)cc1 [sulfaphenazole]
nH (Cytochrome P450 (CYP) [5]): 1.0
